Test [1] concerns the target T1, Aurora A (Homo sapiens, UniProt O14965).
T1 sequence (O14965 1-403): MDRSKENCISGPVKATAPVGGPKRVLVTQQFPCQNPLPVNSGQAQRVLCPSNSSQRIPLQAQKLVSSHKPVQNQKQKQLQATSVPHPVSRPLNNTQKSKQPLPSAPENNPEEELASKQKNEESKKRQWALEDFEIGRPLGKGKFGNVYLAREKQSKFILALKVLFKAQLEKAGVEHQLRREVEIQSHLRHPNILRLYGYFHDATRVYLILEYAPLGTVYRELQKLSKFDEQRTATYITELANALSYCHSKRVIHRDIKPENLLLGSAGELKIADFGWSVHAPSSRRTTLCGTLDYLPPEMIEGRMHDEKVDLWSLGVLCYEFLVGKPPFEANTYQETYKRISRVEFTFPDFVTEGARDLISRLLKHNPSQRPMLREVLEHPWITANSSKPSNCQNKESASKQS
The test is described as follows: Aurora A enzyme inhibition (time-resolved fluorescence, STK substrate-2). The test is classed as biochemical. The following applies: 1 mM ATP. In short, it runs like this: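 Phosphorylation of biotinylated STK substrate-2 at 1 mM ATP, 1 h, Hepes buffer pH 7.4 (MgCl2, sodium orthovanadate, Triton X-100). After EDTA quench, 665/615 nm time-resolved fluorescence ratio read via europium anti-phospho antibody and SA-XL665; IC50 from exponential fit versus inhibitor concentration.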

Test [2] has as its target KDR (Homo sapiens, UniProt P35968). Kind of test: KDR HTRF in vitro kinase assay. The class given is biochemical. Further details: purified enzyme (His6-KDR 789-1354, MW 63 kD); His6 (N). The following applies: 1 mM ATP; read-out: KDR enzyme inhibition data (Ki). In short, it runs like this:
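His6-KDR 789-1354 (7 ng/well) with 0.5 μM biotinylated peptide substrate and 1 mM ATP in HEPES pH 7.1, MgCl2/MnCl2, 60 min at room temperature. EDTA-quenched, detected by streptavidin-XL-665 plus Eu-kryptate anti-phosphotyrosine HTRF after 3 h; IC50 from 620/665 nm ratio.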
(In TR-FRET formats the signal depends on donor and acceptor labels being close together.)

A value given as a limit tells only on which side of the number the result lay.

Chain of KDR (P35968 789-1354): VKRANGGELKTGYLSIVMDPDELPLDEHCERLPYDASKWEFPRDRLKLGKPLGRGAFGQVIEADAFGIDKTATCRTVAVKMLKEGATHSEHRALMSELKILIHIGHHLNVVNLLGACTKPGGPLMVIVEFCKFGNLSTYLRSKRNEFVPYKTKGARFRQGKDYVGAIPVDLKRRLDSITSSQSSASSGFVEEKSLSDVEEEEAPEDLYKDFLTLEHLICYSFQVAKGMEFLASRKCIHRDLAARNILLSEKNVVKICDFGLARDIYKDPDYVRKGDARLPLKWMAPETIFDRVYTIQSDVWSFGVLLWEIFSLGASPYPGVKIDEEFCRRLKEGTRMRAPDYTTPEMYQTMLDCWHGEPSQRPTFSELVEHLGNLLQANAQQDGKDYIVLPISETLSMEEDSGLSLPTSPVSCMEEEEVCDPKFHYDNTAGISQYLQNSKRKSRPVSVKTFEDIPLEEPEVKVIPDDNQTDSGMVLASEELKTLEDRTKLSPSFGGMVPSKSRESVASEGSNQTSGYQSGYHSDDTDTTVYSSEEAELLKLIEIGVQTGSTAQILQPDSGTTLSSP

Regarding `CN1CCN(CCn2cc(Nc3ncc(Br)c(N[C@H]4[C@@H](C(N)=O)[C@@H]5C=C[C@H]4C5)n3)cn2)CC1` [Example 94, (1S,2S,3R,4R)-3-{[5-bromo-2-({1-[2-(4-methylpiperazin-1-yl)ethyl]-1H-pyrazol-4-yl}amino)pyrimidin-4-yl]amino}bicyclo[2.2.1]hept-5-ene-2-carboxamide], the inhibition constant (Ki) in test [1] and in test [2] was under 100 nM throughout.

With `NC(=O)[C@@H]1[C@H](Nc2nc(Nc3cnn(C4CCNCC4)c3)ncc2Br)[C@H]2C=C[C@@H]1C2` [Example 95, (1S,2S,3R,4R)-3-[(5-bromo-2-{[1-(piperidin-4-yl)-1H-pyrazol-4-yl]amino}pyrimidin-4-yl)amino]bicyclo[2.2.1]hept-5-ene-2-carboxamide], the inhibition constant (Ki) in test [1] and in test [2] was under 100 nM each time.

For the compound `COCCn1cc(Nc2ncc(Cl)c(N[C@H]3[C@@H](C(N)=O)[C@@H]4C=C[C@H]3C4)n2)cn1` [Example 96, (1S,2S,3R,4R)-3-[(5-chloro-2-{[1-(2-methoxyethyl)-1H-pyrazol-4-yl]amino}pyrimidin-4-yl)amino]bicyclo[2.2.1]hept-5-ene-2-carboxamide], the Ki in test [1] and in test [2] was under 100 nM in each case.

The values above are taken from patent US8426408B2, “Pyrimidine inhibitors of kinases” (AbbVie Inc., priority 2009, dated 2013).
